Assay results reported in patent US20240261274A1, “TREATMENT OF MYC-DRIVEN CANCERS WITH GSPT1 DEGRADERS” (MONTE ROSA THERAPEUTICS, INC., priority 2021, published 2024).

Assays:
[1] = test system: NSCLC cell lines expressing high levels of N-Myc (NCI-H1155, ABC-1); test: Viability of NSCLC cell lines treated with compound 210; type: cell-based, human; details: compared to low N-Myc lines EBC-1, NCI-H2023
Protocol: GSPT1 was degraded by compound 210 after six hours of treatment in high N-Myc NCI-H1155 and ABC-1 cells with a DC50 of 3 nM and 22 nM, respectively (x-axis represents M concentration of compound 210; y-axis represents the viability in %).

GSPT1 = GSPT1 (Homo sapiens, UniProt P15170+Q96SW2); test: GSPT1 levels in NCI-H1155 tumors (Compound 345); type: in vivo, mice; parameters: from tissue; host or cells: NCI-H1155 subcutaneous xenograft tumours from BALB/c nude mice; details: day 5, 1 mg/kg and 10 mg/kg, strongest effect at 10 mg/kg
GSPT1, sequence (P15170 whole entry): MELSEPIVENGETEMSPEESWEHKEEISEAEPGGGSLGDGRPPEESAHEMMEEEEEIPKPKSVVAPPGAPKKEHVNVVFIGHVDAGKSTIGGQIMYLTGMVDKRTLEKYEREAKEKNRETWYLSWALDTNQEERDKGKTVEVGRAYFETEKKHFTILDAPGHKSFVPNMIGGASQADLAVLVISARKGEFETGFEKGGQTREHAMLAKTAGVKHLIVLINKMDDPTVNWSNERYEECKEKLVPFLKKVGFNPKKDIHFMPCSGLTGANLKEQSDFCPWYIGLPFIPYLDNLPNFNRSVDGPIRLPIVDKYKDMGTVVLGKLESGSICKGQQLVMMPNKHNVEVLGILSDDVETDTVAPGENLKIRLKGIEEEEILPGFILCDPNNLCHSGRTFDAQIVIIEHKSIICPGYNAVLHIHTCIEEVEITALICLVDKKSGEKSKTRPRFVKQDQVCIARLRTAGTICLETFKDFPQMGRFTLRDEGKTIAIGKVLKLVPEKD
GSPT1, sequence (Q96SW2 whole entry): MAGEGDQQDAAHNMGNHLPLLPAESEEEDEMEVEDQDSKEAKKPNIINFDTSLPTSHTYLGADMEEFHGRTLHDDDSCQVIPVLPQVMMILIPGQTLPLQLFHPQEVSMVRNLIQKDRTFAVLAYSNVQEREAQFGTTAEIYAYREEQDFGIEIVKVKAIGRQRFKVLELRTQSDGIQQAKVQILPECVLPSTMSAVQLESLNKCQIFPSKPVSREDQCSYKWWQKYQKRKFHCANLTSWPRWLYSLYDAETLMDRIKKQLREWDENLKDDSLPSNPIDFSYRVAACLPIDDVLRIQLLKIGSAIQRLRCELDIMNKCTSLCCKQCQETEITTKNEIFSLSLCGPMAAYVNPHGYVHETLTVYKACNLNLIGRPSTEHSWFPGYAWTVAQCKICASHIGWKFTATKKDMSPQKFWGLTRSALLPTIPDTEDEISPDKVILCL
GSPT1, sequence (Q16531 whole entry partner): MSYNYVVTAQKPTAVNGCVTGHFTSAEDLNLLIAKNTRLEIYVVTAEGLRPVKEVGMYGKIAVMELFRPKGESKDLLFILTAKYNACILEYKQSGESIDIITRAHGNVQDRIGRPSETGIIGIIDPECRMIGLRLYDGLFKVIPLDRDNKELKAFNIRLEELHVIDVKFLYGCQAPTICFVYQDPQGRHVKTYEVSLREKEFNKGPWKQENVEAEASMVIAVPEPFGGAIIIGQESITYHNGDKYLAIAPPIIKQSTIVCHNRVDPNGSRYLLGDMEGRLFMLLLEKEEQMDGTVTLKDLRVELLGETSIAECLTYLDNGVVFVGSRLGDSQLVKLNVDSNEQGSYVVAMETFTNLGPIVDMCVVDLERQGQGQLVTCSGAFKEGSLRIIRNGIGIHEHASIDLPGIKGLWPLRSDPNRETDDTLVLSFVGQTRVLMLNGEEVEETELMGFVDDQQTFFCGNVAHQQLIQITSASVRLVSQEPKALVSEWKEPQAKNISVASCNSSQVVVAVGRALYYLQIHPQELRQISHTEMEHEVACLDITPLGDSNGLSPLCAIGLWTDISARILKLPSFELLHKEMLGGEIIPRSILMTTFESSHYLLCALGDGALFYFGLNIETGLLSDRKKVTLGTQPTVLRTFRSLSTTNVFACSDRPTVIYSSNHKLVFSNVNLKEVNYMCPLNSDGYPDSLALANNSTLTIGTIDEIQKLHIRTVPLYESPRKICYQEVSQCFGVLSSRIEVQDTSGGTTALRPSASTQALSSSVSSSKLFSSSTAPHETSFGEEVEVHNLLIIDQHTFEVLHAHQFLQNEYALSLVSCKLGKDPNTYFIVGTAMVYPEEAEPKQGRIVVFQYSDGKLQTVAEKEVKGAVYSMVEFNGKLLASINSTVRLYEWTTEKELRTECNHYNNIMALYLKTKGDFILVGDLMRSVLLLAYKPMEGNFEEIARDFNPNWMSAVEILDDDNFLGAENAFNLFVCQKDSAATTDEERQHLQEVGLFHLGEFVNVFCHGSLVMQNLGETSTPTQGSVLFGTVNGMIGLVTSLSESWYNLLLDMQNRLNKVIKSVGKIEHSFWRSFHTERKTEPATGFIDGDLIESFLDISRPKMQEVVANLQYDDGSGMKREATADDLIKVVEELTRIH
Protocol: (§1) Additionally, plasma concentrations of Compound 345 and levels of GSPT1 and […] (relative to vehicle-only control) were measured in a time-course experiment on day 5 for the animals receiving 1 mg/kg and 10 mg/kg.
(§2) GSPT1 and N-Myc western blotting analyses from NCI-H1155 tumors: The NCI-H1155 model was run as described previously and tumors were harvested following 5 consecutive daily PO doses of Compound 345 at 1.0 and 10 mg/kg. Tumors were lysed in 1× lysis buffer (CST, Cat. No. 9803, Lot No. 0000122383) supplemented with protease (Sigma, Cat. No. P8340) and phosphatase ((Sigma, Cat. No. P5726 and P0044) cocktail inhibitors using TissueLyser II (QIAGEN #85300). Samples were spined at 15,000 rpm in an Eppendorf microfuge for 15 min at 4° C. The protein supernatant was collected in a new 1.5 ml tube and the protein concentrations were determined by the Pierce BCA kit (Thermo, Cat. No. 23225). The tumor lysate samples were mixed with 5×SDS-PAGE loading buffer boiled for 5 min and brought to ice for 5 min. 30 μg of protein was loaded onto a NUPAGE 4-12% BT gel (Invitrogen, Cat. No. NPO336BOX) for separation. […] Membranes were imaged on the Odyssey imager (Li-COR) using fluorescence or cheminulinescence detection. […] Data are expressed as mean±SEM derived from at least three different mice and collected at 0, 2, 6, 12, 24, 48, 72 and 96 hr as indicated.

[2] = test system: MM1 S multiple myeloma cell line derived xenograft; test: MM1 S multiple myeloma CDX efficacy study; type: in vivo, immunodeficient mice; details: oral daily 1, 3 and 10 mg/kg
Protocol: Cell line derived xenograft (CDX) models were produced for the MM1 S multiple myeloma (MM) cell line in immunodeficient mice. Oral dosing of Compound 345 was performed daily at doses of 1 mg/kg, 3 mg/kg, and 10 mg/kg as well as lenalidomide at 50 mg/kg and a no-drug vehicle control. Tumor volumes were measured (mm^3) at regular intervals over the course of 20 to 50 days depending on the animal.
In vivo efficacy study: NCI-H1155, MM1 S, WSU-DLCL2, DOHH-2 cells were maintained in vitro in individual medium and conditions as recommended by the providers and incubated at 37° C. in an atmosphere of 5% CO2 in air. 0.5 million (NCI-H1155), 10 million (MM1S) or 5 million (WSU-DLCL2 and DOHH-2) cells were resuspended in typically 0.1-0.2 mL of PBS with Matrigel (50:50) and were inoculated into 6-8 weeks old BALB/c nude female (NCI-H115, WSU-DLCL2), NOD/SCID (MM1S) or CB-17SCID (DOHH-2) mice and allowed to grow to 150-200 mm3 in size. Mice were dosed orally (PO) and daily (QD) with either vehicle or Compound 345 typically at 1.0 mg/kg, 3.0 mg/kg and 10 mg/kg. […] Tumor volumes were measured at least twice weekly during the treatment period using a caliper and the volume was expressed in mm3 using the formula: V=0.5 a×b2 where a and b were the long and short diameters of the tumor, respectively. […] Data are expressed as the mean±SEM. All data was analyzed using GraphPad Prism 8.1.2 (GraphPad).

N-Myc = N-Myc levels in NCI-H1155 tumors (Compound 345); type: in vivo, mice; details: day 5, 1 mg/kg and 10 mg/kg, strongest effect at 10 mg/kg
Protocol: as §1, §2

## Cc1ccc(NC(=O)OCc2ccc3c(c2)C(=O)N(C2CCC(=O)NC2=O)C3)cc1Cl (stereo not shown) [Compound 210]
[1]
  sensitivity to treatment (viability): highly sensitive

## O=C1CCC(N2Cc3ccc(COC(=O)Nc4cc(OC(F)(F)F)ccc4F)cc3C2=O)C(=O)N1 (stereo not shown) [Compound 345, (2-(2,6-dioxopiperidin-3-yl)-3-oxoisoindolin-5-yl)methyl(2-fluoro-5-(trifluoromethoxy)phenyl)carbamate]
GSPT1
  GSPT1 level relative to vehicle-only control: substantially reduced
[2]
  tumor volume: anti-tumor activity
N-Myc
  N-Myc level relative to vehicle-only control: substantially reduced
